The values below come from patent US4238500A, “Cyclic double hemiacetals of enediol compounds and compositions and methods for preparing and using same” (National Foundation for Cancer Research, priority 1979, dated 1980).

Data set [1] deals with guinea pig ileum. Nature of the data set: Effects on pain receptors: twitch height of coaxially stimulated guinea pig ileum. To be noted: Cavia porcellus, read-out: ED50 (50% reduction in twitch height).
In data set [2] the test system is capillary permeability produced by serotonin or histamine. Nature of the data set: Increased capillary permeability by intradermal serotonin or histamine (trypan blue) in rats. The format is in vivo. Conditions: 100 mg/kg i.p. 30 minutes before, serotonin 0.05 μg or histamine 1 μg intradermal. The protocol: In one series of tests, rats were treated i.v. with trypan blue and then the increased capillary permeability produced by intradermal injection of serotonin (0.05 μg) or histamine (1 μg) was measured.
No effect of methylglyoxal-ascorbic acid compound or L-ascorbic acid could be found in this system.

The test system of data set [3] is edema of the rat paw produced by carrageenan. Nature of the data set: Carrageenan-induced edema of the rat paw.
Protocol: In other experiments, edema of the rat paw was produced by intradermal injection of carrageenan (0.1 ml of 1% solution in saline).
For data set [4], the system named is viral disease. To be noted: cited from earlier work.
Data set [5] relates to acute myelocytic leukemia. Conditions: 13 patients with acute myelocytic leukemia; all then-current therapy 13%; cited from earlier work.
Data set [6] relates to glyoxalase enzyme system. To be noted: converted by glyoxalase to D-lactic acid in presence of reduced glutathione; cited from earlier work.
Setting [7] is: 199 mg/kg i.p. versus indomethacin 3 mg/kg per os.

On to `O=C1O[C@H]([C@@H](O)CO)C(O)=C1O` [L-ascorbic acid], for which the IC50 in data set [1] came to 32 mM. The “effect on increased capillary permeability” value in data set [2] is “No effect”. The “anti-inflammatory activity (rat paw edema)” value in data set [3] (199 mg/kg i.p. 60 minutes prior to carrageenan) is listed as “somewhat anti-inflammatory”. Besides, in data set [3] (setting [7]), the “activity compared with indomethacin” value was “far less active than indomethacin” and the “ratio of effectiveness (indomethacin versus compound)” value is “approximately 200”.
In the case of `O=CC(=O)Cc1ccccc1` [benzylglyoxal], the antiviral activity entry in data set [4] was “have antiviral activity”.
As to `O=CC(=O)C1CCCCC1` [cyclohexylglyoxal], the antiviral activity result in data set [4] is reported as “have antiviral activity”.
For the molecule `CC(C=NNC(=N)N)=NNC(=N)N` [methylglyoxal bis(guanylhydrazone)], the complete remission frequency in data set [5] is listed as 69%.
Turning to `CC(=O)C=O` [methylglyoxal], in data set [1], the IC50 was 8 mM. In addition, in data set [6], the lability in vivo result is listed as “extremely labile in vivo”.
